This is an account of results in patent publication US9540361B2, “N-substituted azetidine derivatives” (Merck Sharp & Dohme B.V., priority 2010, dated 2017).

A short description of data set [1]: Rapid Rat PK after oral administration. The format is in vivo, rats (Rattus Norvegicus). The conditions noted are these: 20 umol/kg, plasma, oral 20 μmol/kg; for AUC: AUC(0-6h), read-out: RRat AUC; for Cmax: read-out: RRat Cmax. On the procedure:
In the context of the present invention with “orally bioavailable” is meant that compounds, when dosed orally to a rat show oral exposure as determined by quantification of compound plasma levels in that rat. Typically, compounds are dosed orally at 20 μmol/kg, as described in Example 14 hereinbelow. Oral exposure is determined by measuring plasma levels over the time range of 0-6 h after dosing and is expressed by AUC(0-6h).
This test was used to determine the pharmacokinetic parameters (AUC(0-6h), Cmax and Tmax) after oral administration of compounds in male (intact or castrated) or female (intact or ovariectomized) rats (Rattus Norvegicus).
After oral administration of a compound at 20 μmol/kg, blood was collected at various time points (0.5, 1, 2, 3, 4 and 6 hours after compound administration) via the tail vein. Plasma samples were pooled per time point, after which the concentration was determined in plasma by means of LC-MS. Pharmacokinetic parameters (AUC(0-6h), Cmax and Tmax) were derived from the obtained concentration versus time curves using the non-compartmental analysis module in Animals! or WinNonlin.

For data set [2], the target named is T1, estrogen receptor alpha (Homo sapiens, UniProt P03372).
T1 construct: endogenous in cells; host or cells: T47D human breast cancer cells (ATCC)
T1 sequence (P03372 1-595): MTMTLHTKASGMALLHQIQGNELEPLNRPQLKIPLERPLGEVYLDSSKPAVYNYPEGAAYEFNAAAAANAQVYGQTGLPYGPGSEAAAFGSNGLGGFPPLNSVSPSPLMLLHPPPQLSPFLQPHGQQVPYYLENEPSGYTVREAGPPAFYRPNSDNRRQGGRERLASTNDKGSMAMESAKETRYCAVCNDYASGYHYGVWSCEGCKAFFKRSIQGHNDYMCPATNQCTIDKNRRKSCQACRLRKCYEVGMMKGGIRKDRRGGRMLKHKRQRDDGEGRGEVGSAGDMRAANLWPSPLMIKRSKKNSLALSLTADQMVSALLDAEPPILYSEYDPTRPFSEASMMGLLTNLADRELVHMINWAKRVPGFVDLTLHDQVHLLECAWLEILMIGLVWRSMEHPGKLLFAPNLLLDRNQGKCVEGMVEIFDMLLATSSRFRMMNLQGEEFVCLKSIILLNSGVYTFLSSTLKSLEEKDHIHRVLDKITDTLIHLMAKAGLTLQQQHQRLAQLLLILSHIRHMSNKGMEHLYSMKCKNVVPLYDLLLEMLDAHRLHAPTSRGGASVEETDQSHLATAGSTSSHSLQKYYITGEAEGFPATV
The data set is described as follows: ERα downregulation assay in T47D breast cancer cells (ERα ELISA). The format is cell-based. As to conditions: downregulation of ERα relative to fulvestrant (100%), 1E-5 M, 24 hours, negative = upregulation. The procedure, abridged:
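T47D cells were treated with 1E-5 M test compound for 24 hours, then lysed in the well. ERα protein content was measured by ELISA. Efficacy is given as fraction of maximal response relative to fulvestrant, defined as 100% downregulation.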

Data set [3] addresses T2, human estrogen receptor α (hERα) (Homo sapiens, UniProt P03372).
T2 sequence (P03372 1-595): T1 sequence (P03372 1-595)
The data set is described as follows: antagonistic activity in CHO cells co-transfected with hERα, rat oxytocin promoter and luciferase reporter gene. The format is cell-based. As to conditions: antagonism of 17β-estradiol-induced transactivation, CHO-hERα-RO-LUC; read-out: ERα pIC50 (converted). A digest of the protocol:
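Recombinant CHO cells stably carrying hERα, rat oxytocin promoter and luciferase reporter, with receptor activated by 17β-estradiol. Antagonist efficacy given as maximal inhibition relative to that of the reference anti-estrogen ICI 164,384.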
Background: A reporter such as luciferase makes a cellular process visible.

The test system of data set [4] is MCF-7H cells. Put plainly: 7-day in vitro proliferation assay in tamoxifen-resistant MCF-7H breast cancer cells (methyl-3H-thymidine incorporation). The format is cell-based, human. As to conditions: Homo sapiens, MCF7, 168 h; efficacy (fraction of maximal response relative to E2) in MCF-7H proliferation; read-out: MCF7 ia. On the procedure: To what extent compounds are capable of stimulating proliferation in ER-positive, tamoxifen-resistant breast cancer cells is tested in a 7-day in vitro proliferation assay using MCF-7H cells. More specifically, this in vitro bioassay is used to determine the efficacy (fraction of maximal response), pEC50, and relative potency of the compound to induce proliferation by comparing the data for this compound with those of the reference compound 17β-estradiol (E2) in the same test.
A more detailed description of the method used is as follows.
Cell culture: The human epithelial breast cancer cell line MCF-7H (origin: Hubrecht Laboratory, Utrecht, The Netherlands) was routinely maintained in complete medium which is a 1:1 mixture of Ham's F12 medium and Dulbecco's Modified Eagle Medium (DMEM; Invitrogen, Carlsbad, USA) without phenol red and enriched with 5% fetal calf serum (FCS; Hyclone, Utah, USA), 100 μg/ml streptomycin and 100 units/ml penicillin adapted to contain:
Cells were grown in 80 cm^2 culture flasks (Nunc, Roskilde, Denmark) and kept in an atmosphere of 5% CO2-95% air at 37 degrees Celsius. Cells were subcultured when they reached about 80-90% confluence, resulting in one passage a week. Subculturing includes detaching the cells using trypsin/EDTA and diluting the cell suspension 10 times.
Methyl-^3H-thymidine incorporation assay: MCF-7H cells were starved overnight in assay medium containing 5% charcoal-treated (CT) bovine calf serum (BCS; Hyclone) instead of FCS and a final concentration of 1.0 μg/ml bovine insulin, the day before plating. Cells were plated in assay medium containing 5% CT BCS, in white 24-wells plates (Perkin Elmer, Shelton, USA), at a density of 7.5×10^3 cells per well, each well containing 630 μL assay medium. Cells were allowed to attach and spread for 24 h before stimulation with reference and/or test compound(s). After a stimulation period of 7 days, 0.25 μCi/well of methyl-^3H-thymidine (GE Healthcare Limited, Buckinghamshire, UK) was added per well. Cultures were maintained in an atmosphere of 5% CO2-95% air at 37 degrees Celsius. After overnight incubation, excess methyl-^3H-thymidine was aspirated and the cells were washed with phosphate-buffered saline (PBS). After 1 h of incubation with 1 ml scintillation fluid Microscint-20 (Perkin Elmer), radioactivity was measured in a Packard TOP-count NXT microplate scintillation counter (Perkin Elmer).

With `CCCN1CC(Oc2ccc(-c3c(-c4ccccc4Cl)noc3-c3ccc(O)cc3)cc2)C1` [compound 6g, 4-(4-(4-(N-propylazetidin-3-yloxy)phenyl)-3-(2-chlorophenyl)isoxazol-5-yl)-phenol], in data set [1], the area under the curve (AUC) worked out at 2.05 µM·h and the Cmax worked out at 570 nM. Besides, in data set [2], the “DR (%)” value is 57%. In data set [3], the IC50 is 0.000251 µM. Moreover, in data set [4], the Emax worked out at 2%.

Turning to `CCCN1CC(Oc2ccc(C(O)c3c(-c4ccccc4Cl)noc3-c3ccc(O)cc3)cc2)C1` (stereo not drawn) [compound 7av, 4-(3-(2-chlorophenyl)-4-(hydroxy(4-(1-propylazetidin-3-yloxy)phenyl)methyl)isoxazol-5-yl)phenol], in data set [1], the AUC was 3.8 µM·h and the peak concentration (Cmax) amounted to 990 nM. The “DR (%)” value in data set [2] amounted to 84%. For the same compound, the IC50 in data set [3] is 0.0251 µM.

On to `Cl.Oc1ccc(-c2onc(-c3ccccc3Cl)c2-c2ccc(OC3CN(CC4CC4)C3)cc2)cc1` [compound 7y, 4-(3-(2-chlorophenyl)-4-(4-(1-(cyclopropylmethyl)azetidin-3-yloxy)phenyl)-isoxazol-5-yl)phenol hydrochloride], for which, in data set [1], the exposure (AUC) came out at 1.2 µM·h and the maximum concentration (Cmax) was 290 nM. Besides, the “DR (%)” value in data set [2] was 57%. For the same compound, the IC50 in data set [3] is 0.000316 µM.

In the case of `CCCN1CC(Oc2ccc(C(=C(CC)c3ccccc3)c3ccccc3)cc2)C1.O=C(O)C(F)(F)F` [compound 6u, 3-(4-(1,2-diphenylbut-1-enyl)phenoxy)-1-propylazetidine 2,2,2-trifluoroacetate], in data set [1], the exposure (AUC) is 1.97 µM·h and the Cmax amounted to 450 nM. For the same compound, the “DR (%)” value in data set [2] stood at 75%. Further, the IC50 in data set [3] is 0.0316 µM. For the same compound, the Emax in data set [4] is 8%.

As a reminder, the AUC is the area under the concentration-time curve, a measure of exposure. As usually defined, the Cmax is the peak of the concentration-time curve.
